Laboratory results taken from patent US20250224398A1, “GASDERMIN E EXPRESSION IN HUMAN T CELLS AS A MARKER FOR PROINFLAMMATORY T CELL FUNCTIONS” (LEIBNIZ-INSTITUT FÜR NATURSTOFF-FORSCHUNG UND …, priority 2022, published 2025).
Entries after “also recorded” stand apart in the source; their conditions may differ. Residues, ends and D or L forms follow the SMILES beside them. *: point of attachment. Cbz = O=C(OCc1ccccc1)*; CH2F = FC*

Legend:
SGC-7901 and MKN-45 = details: cited from earlier work
human Th17 cells [1] = experiment: Cytokine secretion by stimulated Th17 cells into culture supernatants (ELISA / Luminex); assay type: cell-based; details: for IL-1α secretion by Th17 cells: Th17 cells stimulated with anti-CD3 and anti-CD28 mAbs for 5 days, ELISA of supernatants
Experimental: (§1) Human T cells were cultured in RPMI 1640 medium supplemented with 1% (v/v) GlutaMAX™ Supplement, 1% (v/v) MEM nonessential Amino Acids Solution (100×), 1% (v/v) sodium pyruvate (100 mM), 0.1% 2-Mercaptoethanol (50 mM) (all from Gibco™), 1% (v/v) Penicillin-Streptomycin (Sigma-Aldrich), penicillin (500 U/ml), streptomycin (500 μg/ml), and 10% (v/v) fetal calf serum (Sigma-Aldrich). In some experiments, T cell culture was performed in the presence of recombinant cytokines (IL-6, 50 ng/ml; IL-12, 10 ng/ml; IL-4, 10 ng/ml; TGF-b, 10 ng/ml; IL-1b, 20 ng/ml; all from R&D Systems) or neutralizing antibodies (anti-IL-1a, […], BD Biosciences). […] T cells were stimulated with plate-bound anti-CD3 (2 μg/ml, clone TR66) and anti-CD28 mAbs (2 μg/ml, clone CD28.2; both from BD Biosciences) for 48 h before transfer into uncoated wells for another 3 days for a total culture period of 5 days, unless indicated otherwise in the legends. T cell clones were generated in non-polarizing conditions as described previously following single-cell deposition with fluorescence-activated cell sorting or by limiting dilution cloning (Gross, O. et al. Inflammasome activators induce interleukin-1alpha secretion via distinct pathways with differential requirement for the protease function of caspase-1. Immunity 36, 388-400, doi: 10.1016/j.immuni.2012.01.018 (2012)). Human monocytes were isolated from PBMCs by positive selection with CD14-specific MicroBeads (Miltenyi Biotec). Cells were stimulated with or without 1 μg/mL ultrapure lipopolysaccharide (LPS)-EB (t1r1-3pelps, InvivoGen) for 24 h and nigericin (10 μg/mL, InvivoGen) or ATP (5 mM, Thermo Fisher Scientific) for the last 30 mins. In some experiments, CD14^+ magnetic activated cell sorting (MACS)-sorted monocytes were differentiated into macrophages for 7 days in the presence of GM-CSF (R&D Systems).
(§2) Intracellular cytokine and transcription factor staining was performed as described before (Noster, R. et al. IL-17 and GM-CSF expression are antagonistically regulated by human T helper cells. Sci Transl Med 6, 241ra280, doi: 10.1126/scitranslmed.3008706 (2014)). Cells were stained with the following antibodies: anti-IL-1a-PE (364-3B3-14), anti-IL-4-FITC (MP4-25D2 5), anti-IL-17A-Pacific Blue (BL168), anti-IFN-g-APC-Cy7 (4S.B3), anti-IL-10-PE-Cy7 (JES3-9D7), (all from Biolegend), anti-RORgt-APC (AFKJS-9, eBioscience), anti-Ki67-BV421 (Biolegend), and anti-IL-1R1-PE (FAB269P, R&D Systems). Then, they were analyzed with a BD LSRFortessa (BD Biosciences), a CytoFLEX Flow Cytometer (Beckman Coulter) or a MACSQuant analyzer (Miltenyi Biotec). Flow cytometry data were analyzed with FlowJo software (Tree Star) or with Cytobank (Cytobank Inc.). The concentrations of cytokines in cell culture supernatants were measured by ELISA (Duoset ELISA kits from R&D Systems, Human Caspase-1SimpleStep ELISA Kit (Abcam) or by Luminex (eBioscience) according to standard protocols as indicated in the corresponding figure legends. Counting beads (CountBright™ Absolute Counting Beads, Thermo Fisher Scientific) were used to normalize for cell numbers if analysis of cumulative supernatants obtained from 5-day cell cultures was performed.

human Th17 cells [2] = experiment: Intracellular cytokine staining and flow cytometry of Th17 cells; assay type: cell-based
Experimental: as §1, with “In some experiments, CD14^+ magnetic activated cell sorting (MACS)-sorted monocytes were differentiated into macrophages for 7 days in the presence of GM-CSF (R&D Systems).” left out
as §2, with “Cells were stained with the following antibodies: anti-IL-1a-PE (364-3B3-14), anti-IL-4-FITC (MP4-25D2 5), anti-IL-17A-Pacific Blue (BL168), anti-IFN-g-APC-Cy7 (4S.B3), anti-IL-10-PE-Cy7 (JES3-9D7), (all from Biolegend), anti-RORgt-APC (AFKJS-9, eBioscience), anti-Ki67-BV421 (Biolegend), and anti-IL-1R1-PE (FAB269P, R&D Systems).” left out

human Th17 cells [3] = experiment: Western blot / Jess Simple Western of Th17 cell lysates for caspase and GSDME cleavage; assay type: cell-based; details: for GSDME cleavage / caspase-3 cleavage: Th17 cells stimulated 5 days with anti-CD3 and anti-CD28 mAbs
Experimental: as §1
Cells were lysed in RIPA buffer (50 mM Tris, 150 mM NaCl, 1 mM EDTA, 0.1% NP-40, pH 7.5) containing protease inhibitor (Roche) and PhosphoSTOP Easypack (Roche). The protein concentrations of cell lysates were determined with a Pierce™ BCA Protein Assay Kit (Thermo Fisher Scientific™). Total protein ([…]) was boiled with 4× Laemmli sample buffer (Bio-Rad Laboratories) containing 355 mM 2-mercaptoethanol (Thermo Fisher Scientific) at 99° C. for 10 min. The supernatants and lysates were separated by SDS-polyacrylamide gel electrophoresis (PAGE) and transferred to a PVDF membrane (Bio-Rad Laboratories) by using a Mini-Protean system (Bio-Rad Laboratories) according to the manufacturer's protocol. The following primary antibodies were used for immunoblotting: mouse anti-human caspase-8 (Cell Signaling Technology), rabbit anti-human caspase-1 (Cell Signaling Technology), rabbit anti-human IL-1α (Abcam), mouse anti-human GAPDH (Merck millipore), mouse anti-human b-actin (Cell Signaling Technology), and rabbit anti-human gasdermin E (Abcam), rabbit anti-human caspase-3 (Cell Signaling Technology), mouse anti-human caspase-8 (Cell Signaling Technology), rabbit anti-human gasdermin D (Cell Signaling Technology), rabbit anti-human cleaved gasdermin D (Cell Signaling Technology), rabbit anti-NLRP3 (Cell Signaling Technology). HRP-conjugated anti-mouse and anti-rabbit IgG antibodies (Cell Signaling Technology) were used as secondary antibodies. Immunoreactive bands were detected by Pierce™ ECL Western Blotting Substrate or SuperSignal™ West Femto Maximum Sensitivity Substrate (both from Thermo Scientific™). Chemiluminescence signals were recorded with an Odyssey Imaging system (LI-COR Biosciences) and analyzed on Image Studio™ Lite (LI-COR Biosciences). Image contrast was enhanced in a linear fashion when necessary. Protein lysates were also prepared for automated Western blotting using a Jess System (ProteinSimple) according to the manufacturer's instructions. […]

human monocytes = experiment: IL-1a secretion by LPS/nigericin stimulated monocytes (ELISA); assay type: cell-based; details: LPS 24 h, nigericin 30 min
Experimental: as §1, with “Human monocytes were isolated from PBMCs by positive selection with CD14-specific MicroBeads (Miltenyi Biotec). Cells were stimulated with or without 1 μg/mL ultrapure lipopolysaccharide (LPS)-EB (t1r1-3pelps, InvivoGen) for 24 h and nigericin (10 μg/mL, InvivoGen) or ATP (5 mM, Thermo Fisher Scientific) for the last 30 mins. In some experiments, CD14^+ magnetic activated cell sorting (MACS)-sorted monocytes were differentiated into macrophages for 7 days in the presence of GM-CSF (R&D Systems).” left out

[4] = test system: patients suffering from the rare autoinflammatory Schnitzler syndrome; experiment: Treatment of Schnitzler syndrome patients with IL-1β-neutralizing antibody; IL-1α secretion of ex vivo Th17 cell clones (Luminex) and clinical symptoms; assay type: in vivo, human; details: treatment for 6 months; Th17 cell clones restimulated with CD3 and CD28 mAbs for 5 days
Experimental: Peripheral blood mononuclear cells (PBMCs) were isolated by density gradient centrifugation using Ficoll-Paque Plus (GE Healthcare). CD4^+ T cells were isolated from fresh PBMC by positive selection with CD4-specific MicroBeads (Miltenyi Biotec) using an autoMACS Pro Separator. […]
as §2, with “Cells were stained with the following antibodies: anti-IL-1a-PE (364-3B3-14), anti-IL-4-FITC (MP4-25D2 5), anti-IL-17A-Pacific Blue (BL168), anti-IFN-g-APC-Cy7 (4S.B3), anti-IL-10-PE-Cy7 (JES3-9D7), (all from Biolegend), anti-RORgt-APC (AFKJS-9, eBioscience), anti-Ki67-BV421 (Biolegend), and anti-IL-1R1-PE (FAB269P, R&D Systems).” left out, “performed. […]” for “performed.”

[5] = test system: patients suffering from the rare autoinflammatory Schnitzler syndrome; details: treatment for 6 months; cited from earlier work
[6] = Th17 cells, restimulation with PMA and ionomycin in presence or absence of BFA
[7] = anti-CD3 and anti-CD28 mAb 5 days, PMA and ionomycin restimulation

Question: What does the source list for `O=c1[nH]cc(F)c(=O)[nH]1` [5-FU]?
Answer: cell viability (SGC-7901 and MKN-45; SGC-7901 and MKN-45 treated with 5-FU): significantly decreased; percentage of PI and APC Annexin-V double positive cells (SGC-7901 and MKN-45; after 5-FU treatment compared to control group): elevated; release of LDH (SGC-7901 and MKN-45): elevated

Question: With `CC(=O)N[C@@H](Cc1ccc(O)cc1)C(=O)N[C@H](C(=O)N[C@@H](C)C(=O)N[C@@H](CC(=O)O)C(=O)CCl)C(C)C` [Ac-YVAD-CMK] as the molecule, how does the “IL-1α secretion by Th17 cells” value (human Th17 cells [1]) read?
Answer: did not inhibit; also recorded: significantly elevated

Question: Which results are given for `C[C@H]1CCC/C=C/[C@@H]2C[C@H](O)C[C@H]2[C@H](O)/C=C/C(=O)O1` [BFA, brefeldin A]?
Answer: secretion of IL17A into the extracellular space (human Th17 cells [1]; [6]): reduced; intracellular IL-1α expression (human Th17 cells [2]; [6]): not influenced

Question: For `CC(C)(O)c1coc(S(=O)(=O)NC(=O)Nc2c3c(cc4c2CCC4)CCC3)c1` [MCC950], which “IL-1α secretion by Th17 cells” value (human Th17 cells [1]) is on record?
Answer: significantly reduced; also recorded: significantly inhibited

Question: What about the GSDME cleavage (human Th17 cells [3]) of the same molecule?
Answer: significant reduction

Question: And the caspase-3 cleavage (human Th17 cells [3])?
Answer: significant reduction

Question: And the caspase-8 cleavage (human Th17 cells [3]; Th17 cells stimulated, day 5)?
Answer: less pronounced

Question: Which “IL-1α secretion by Th17 cells” value (human Th17 cells [1]) does the source give for `COC(=O)CC[C@H](NC(=O)[C@H](CC(=O)OC)NC(=O)OCc1ccccc1)C(=O)N[C@H](C(=O)N[C@@H](CC(=O)OC)C(=O)CF)C(C)C` [Z-DEVD-FMK] here?
Answer: abrogating

Question: And the GSDME cleavage (human Th17 cells [3])?
Answer: reduced

Question: Which results are given for `CC[C@H](C)[C@H](NC(=O)OCc1ccccc1)C(=O)N[C@@H](CCC(=O)OC)C(=O)N[C@H](C(=O)N[C@@H](CC(=O)OC)C(=O)CF)[C@@H](C)O` [Z-IETD-FMK] (Cbz-IE(OMe)TD(OMe)-CH2F)?
Answer: IL-1α secretion by Th17 cells (human Th17 cells [1]): abrogating; GSDME cleavage (human Th17 cells [3]): reduced; caspase-3 cleavage (human Th17 cells [3]): abrogation

Question: Which results are given for `CSCC[C@@H](C=O)NC(=O)[C@H](CC(C)C)NC(=O)[C@H](CC(C)C)NC(C)=O` [calpain inhibitor, N-Acetyl-L-leucyl-L-leucyl-L-methioninal] (Ac-Leu-Leu-Met-aldehyde)?
Answer: IL-1α secretion by Th17 cells (human Th17 cells [1]): dose-dependent reduction; LPS/nigericin-induced IL-1a secretion by monocytes (human monocytes): not dependent on calpain

Question: For `C/C=C(/C)C(=O)O[C@H]1C(C)=C2[C@H]([C@@H]1OC(=O)CCCCCCC)[C@@](C)(OC(C)=O)C[C@H](OC(=O)CCC)[C@@]1(O)[C@H]2OC(=O)[C@@]1(C)O` [thapsigargin], which “IL-1α secretion by Th17 cells” value (human Th17 cells [1]) is on record?
Answer: increased

Question: Which “IL-1α production by Th17 cells of Schnitzler syndrome patients” value [4] does the source give for “canakinumab: IL-1β-neutralizing antibody” here?
Answer: significant reduction

Question: What about the clinical symptoms [5] of the same molecule?
Answer: complete resolution

Question: With “gevokizumab: IL-1β-neutralizing antibody” as the molecule, how does the “IL-1α production by Th17 cells of Schnitzler syndrome patients” value [4] read?
Answer: significant reduction

Question: What about the clinical symptoms [5] of the same molecule?
Answer: complete resolution

B1: recombinant IL-1α: recombinant IL-1α applied exogenously to Th17 cells (protein, UniProt P01583 113-271, looked up)
Interleukin-1 alpha: SAPFSFLSNVKYNFMRIIKYEFILNDALNQSIIRANDQYLTAAALHNLDEAVKFDMGAYKSSKDDAKITVILRISKTQLYVTAQDEDQPVLLKEMPEIPKTITGSETNLLFFWETHGTKNYFTSVAHPNLFIATKQDYWVCLAGGPPSITDFQILENQA
Question: For B1, which “IFN-γ expression by Th17 cells” value (human Th17 cells [2]; [7]) is on record?
Answer: upregulation

Question: And the “IL-10 expression by Th17 cells” value (human Th17 cells [2]; [7])?
Answer: reduced

Question: What about the “IL-17A expression by Th17 cells” value (human Th17 cells [2]; [7]) of the same molecule?
Answer: upregulation
